Data: US20210115366A1, “METHODS OF MAKING IMPROVED HUMAN INTESTINAL ORGANOID COMPOSITIONS VIA APPLICATION OF STRAIN AND HUMAN INTESTINAL ORGANOID COMPOSITIONS THEREOF” (Children's Hospital Medical Center, priority 2017, published 2021)
“Also recorded” adds a separate entry of the source.

How the values were obtained:
tHIO = test: Ex vivo muscle strength (organ bath, isometric force) of tHIO muscle strips; set-up: species or system human
Method: (§1) After an equilibration period, muscle force contraction was assayed using a logarithmic series of bethanechol doses ranging in concentration from 1 nM to 10 mM. Representative tensile response recordings are plotted for tHIO, tHIO+S and adult jejunum (FIG. 7B). […] To better visualize the differences between tHIO and tHIO+S the data was also plotted sans adult jejunum (FIG. 7C, right panel).
(§2) tHIO and tHIO+S grafts were harvested and placed in ice-cold Hank's Balanced Salt Solution (HBSS). Human surgical samples were maintained overnight at 4° C. in HBSS prior to assaying in order to minimize the effects of anesthetics. Muscle strips (4-6 mm in length and 1-2 mm in width) were dissected from the samples. Strips were then suspended vertically in an organ bath chamber (Radnoti) filled with freshly prepared Krebs-Ringer solution (Sigma; supplemented with 2.5 mM CaCl and 15 mM NaHCO3; pH 7.4), warmed to 37° C. and gassed with 95% O2+5% CO2. Segments were allowed to equilibrate for an hour at an initial tension of 0.5 g. The contractile response of the muscle was continuously recorded, using 4-chamber tissue-organ bath chambers with isometric force transducers (0-25 g; AD Instruments) coupled to a multi-channel bridge amplifiers and data recorder (AD Instruments; PowerLab 4/35) linked to a computer equipped with LabChart Pro software (AD Instruments). […]

adult human jejunum = test: Ex vivo muscle strength (organ bath, isometric force) of adult jejunum muscle strips
Method: as §1, §2

tHIO+S = test: Ex vivo muscle strength (organ bath, isometric force) of tHIO+S muscle strips; set-up: species or system human
Method: as §1, §2

infant jejunum = test: Ex vivo muscle strength (organ bath, isometric force) of infant jejunum muscle strips; set-up: species or system human; conditions: 10 μM after bethanechol dose series
Method: as §1, §2

[1] = 10 μM after bethanechol dose series

## CC(C[N+](C)(C)C)OC(N)=O (stereo not shown) [bethanechol, Carbamyl-p-methylcholine chloride]
tHIO; 1 nM to 10 mM, EC50 with 95% confidence could not be determined
  tensile response to bethanechol: low overall tensile response
Adult human jejunum; adult human jejunum muscle strips, logarithmic doses 1 nM to 10 mM, read-out: effective concentration to achieve half of the maximal response (EC50), muscle contraction
  EC50: 3.28 µM
tHIO+S; Homo sapiens, logarithmic doses 1 nM to 10 mM, read-out: effective concentration to achieve half of the maximal response (EC50), muscle contraction
  EC50: 14.7 µM

## CN1[C@@H]2C[C@@H](OC(=O)[C@H](CO)c3ccccc3)C[C@H]1[C@@H]1O[C@@H]12 [scopolamine]
tHIO; [1]
  tension before and after administration of scopolamine (relaxation): Relaxation was successfully induced; also recorded: relaxation is observed
Adult human jejunum; adult jejunum muscle strips, 10 μM after bethanechol dose series
  tension before and after administration of scopolamine (relaxation): Relaxation was successfully induced
Infant jejunum
  tension before and after administration of scopolamine (relaxation): Relaxation was successfully induced
tHIO+S; [1]
  tension before and after administration of scopolamine (relaxation): Relaxation was successfully induced; also recorded: relaxation is observed
